Data taken from EP3301096A1, “BIS-INDOLE DERIVATIVES FOR USE IN THE TREATMENT OF BACTERIAL INFECTIONS” (Heinrich Heine Universität Düsseldorf, priority 2016, dated 2018).

Key:
E. faecalis ATCC 29212 = assay: MIC by broth microdilution method (CLSI); conditions: Enterococcus faecalis, ATCC29212, 24 h
Description: (§4) The compounds were tested for their antibacterial activities against the pathogenic nosocomial strains of Staphylococcus aureus, Enterococcus faecalis Enterococcus faecium, Acinetobacter baumannii. The minimal inhibitory concentration (MIC) was determined by the broth microdilution method according to the recommendations of the Clinical and Laboratory Standards Institute (CLSI) (CLSI M7-A9, 2012). For preparation of the inoculum the growth method was used. Bacterial cells were grown aerobically in Muller Hinton (MH) medium at 37°C and 180 rpm. A preculture was grown until log phase (OD600 nm ∼ 0.5) and then seeded at 5 x 10^4 bacteria/well in a total volume of 100 µL in 96 well round bottom microtiter plates and incubated with serially diluted test substances at a concentration range of 100-0.78 µM. The compounds were screened in two-fold serial dilution. Microplates were incubated aerobically at 37°C for 24 h. MICs were determined by identifying the minimum concentration of the compounds that led to complete inhibition of visual growth of the bacteria.

E. faecalis ATCC 51299 = assay: MIC by broth microdilution method (CLSI); conditions: Enterococcus faecalis, ATCC51299, 24 h
Description: as §4

[1] = tested on: methicillin-resistant S. aureus (MRSA) strain ATCC 700699; assay: Frequency of spontaneous resistant mutants on compound-containing agar; type: cell-based, Staphylococcus aureus; conditions: agar with 3- and 5-fold MIC, 72 h, 37°C
S. aureus ATCC 25923 = assay: MIC by broth microdilution method (CLSI); conditions: Staphylococcus aureus, ATCC25923, 24 h
Description: as §4

[2] = tested on: Staphylococcus aureus MRSA strain ATCC 700699; assay: Time-kill curves in vitro (killing kinetics); type: cell-based; conditions: for bacteria amount: after 6 h at five-fold MIC, inoculum 10^6 CFU/mL; for killing effect: five-fold MIC
M. tuberculosis H37Rv = assay: MIC determination, resazurin microplate assay; type: cell-based; conditions: Mycobacterium tuberculosis, 120 h, five days, range 100-0.78 µM
[3] = tested on: Methicillin resistant S. aureus (MRSA; ATCC 700699); assay: Resistance development during time-kill kinetics; type: cell-based, Staphylococcus aureus; conditions: after 6 and 24 h of incubation, plated on agar with 5x MIC
Description: Additionally, the resistance rate of the cultures was determined after 6 and 24 h of incubation. For this, 20 µL of the cultures were plated on 1 mL MH agar containing the five-fold MIC of the compounds (for the compound according to formula (2) and (4): 2 µM, for the compound according to formula (3): 8 µM). After an incubation time of 24 h at 37°C, the colonies were counted. The resistance rate was determined as quotient of the number of resistant colonies on compound containing agar and the total amount of viable bacteria at the corresponding time points.
Two independent cultures C1 and C2 were tested for each attempt. Compounds were tested at 5x MIC resulting in 0.02-0.08% DMSO final concentration. In an independent experiment, medium was replaced and compounds were freshly added after 6 h, denoted "freshly added" in the Figure. 20 µL of different dilution of the cultures after either 6 or 24 h of incubation were plated out on MH agar containing either no antibiotics, which is denoted (*) or the compounds of formulas (2) and (3) at 5x MIC, respectively.

MRSA ATCC 700699 = assay: MIC by broth microdilution method (CLSI); conditions: for MIC: Staphylococcus aureus, 24 h
Description: as §4

[4] = tested on: human monocyte cell line THP-1; assay: Cytotoxicity, resazurin assay; type: cell-based; conditions: THP-1 cells, 48 h
Description: (§1) The cytotoxicity of the compounds according to formulas (2), (3) and (4) and according to formulas (7), (11), (12) and (18) was determined in vitro using the human monocyte cell line THP-1 (Deutsche Sammlung von Mikroorganismen und Zellkulturen GmbH) and the human fetal lung fibroblast cell line MRC-5 (American Type Culture Collection).
(§2) THP-1 cells were cultured in RPMI 1640 medium containing 10% (v/v) fetal bovine serum (FBS), while MRC-5 cells were incubated in Dulbecco's Modified Eagles Medium (DMEM) containing 10% (v/v) FBS both at 37°C in a humidified atmosphere of 5% CO2. […] Cells treated with DMSO in a final concentration of 1% (v/v) served as DMSO toxicity controls. After an incubation time of 48 h, 10 µL resazurin solution (100 µg/mL) were added per well and incubated for further 3 h at 37°C in a humidified atmosphere of 5% CO2. Fluorescence was quantified using a microplate reader (excitation 540 nm, emission 590 nm). Growth was calculated relative to non-inoculated (i.e. cell-free) (0% growth) and untreated (100% growth) controls in triplicate experiments, respectively. For determination of the therapeutic index of the tested substances, the selectivity index (SI) was determined by the quotient of cytotoxic concentration and MIC. Compounds with SI ≥ 10 were characterized in further experiments.

[5] = tested on: human fetal lung fibroblast cell line MRC-5; assay: Cytotoxicity, resazurin assay; type: cell-based; conditions: MRC-5 cells, 48 h
Description: as §1, §2

[6] = tested on: methicillin-resistant Staphylococcus aureus; assay: MIC quantified via the BacTiter-Glo assay; type: cell-based; conditions: methicillin-resistant strain; 24 h
Description: (§3) The MICs of compounds according to formulas (2), (3), (4), (7), (11), (12) and (18) were additionally quantified via the BacTiter-Glo™ assay (Promega, Madison, WI, USA). Briefly, after an incubation time of 24 h, each well was resuspended by pipetting, and 50 µL aliquots were transferred into an opaque-walled multiwell plate. Additionally, control wells containing medium without cells to determine background luminescence were prepared. 50 µL BacTiter-Glo™ reagent were added to each well. Contents were mixed and incubated for five minutes at room temperature. Luminescence was measured using a microplate reader. Growth was calculated relative to the background luminescence (0% growth) and a compound-free DMSO control (100% growth).

[7] = tested on: methicillin-sensitive Staphylococcus aureus; assay: MIC quantified via the BacTiter-Glo assay; type: cell-based; conditions: methicillin-sensitive strain; 24 h
Description: as §3

E. faecium ATCC 35667 = assay: MIC by broth microdilution method (CLSI); conditions: Enterococcus faecium, ATCC35667, 24 h
Description: as §4

[8] = tested on: VR E. faecium ATCC 700221; assay: MIC by broth microdilution method (CLSI); conditions: Enterococcus faecium, ATCC700221, 24 h
Description: as §4

resistant MRSA mutants = assay: Level of resistance of isolated resistant mutants (dose-response); type: cell-based, Staphylococcus aureus

SMILES | MIC (E. faecalis ATCC 29212) [µM] | MIC (E. faecalis ATCC 51299) [µM] | frequency of spontaneous resistant mutants [1] | MIC (S. aureus ATCC 25923) [µM] | bacteria amount [2] | viability of the culture ([2]; compound freshly added to washed cells after 6 h, initial further decrease) | killing effect [2] | MIC (M. tuberculosis H37Rv) [µM] | level of resistance in treated cultures [3] | MIC (MRSA ATCC 700699) [µM] | concentrations at which a decreased inhibitory effect could be observed (MRSA ATCC 700699; paradoxical effect, assumed aggregation and precipitation) [µM] | cytotoxic (inhibitory) concentration [4] [µM] | cytotoxic (inhibitory) concentration [5] [µM] | inhibition of Staphylococcus aureus (BacTiter-Glo) [6] | inhibition of Staphylococcus aureus (BacTiter-Glo) [7] | MIC (E. faecium ATCC 35667) [µM] | MIC [8] [µM] | MIC for the mutants relative to the parent MRSA strain (resistant MRSA mutants; mutants 9-RM, 1-RM, 9-RM-5x versus MRSA WT) [fold] | resistance of clones resistant against formula (2) towards the tested compound (resistant MRSA mutants; two tested clones (1-RM)) | amount of surviving bacteria ([2]; after 24 h at five-fold MIC, limit of detection 10^1)
Clc1ccc2[nH]cc(-c3cnc(-c4c[nH]c5ccc(Cl)cc45)cn3)c2c1 [formula (2), 2,5-bis(5-chloro-1H-indole-3-yl)pyrazine] | > 100 | > 100 | 5×10^-7 | > 100 | 10^4 CFU/mL | 10^2 CFU/mL | strong bactericidal killing effect | > 100 | no significant level of resistance was detectable | 0.39 | ≥ 3.125 | 12.5 | 12.5 | effectively inhibited | effectively inhibited | > 100 | > 100 | – | – | –
Clc1ccc2[nH]cc(-c3cnc(-c4c[nH]c5ccc(Cl)cc45)nc3)c2c1 [formula (4), 3,3'-(pyrimidine-2,5-diyl)bis(5-chloro-1H-indole)] | 3.12 | 12.5 | 5×10^-5 | 6.25 | < 10^1 CFU/mL | – | strong bactericidal killing effect | 50 | – | 0.39 | – | > 12.5 | > 12.5 | effectively inhibited | effectively inhibited | 1.56 | 1.56 | 8 | showed cross-resistance | < 10^1 CFU/mL
